Structures can show the parent of a compound that is named as a salt.
Target: PARP-1 (poly[ADP-ribose] polymerase 1) enzyme (Homo sapiens (Human), UniProt P09874)
Assay: PARP-1 (poly[ADP-ribose] polymerase 1) enzyme inhibitory ability, Trevigen assay kit
Assay type: biochemical
Settings: 1 nM compound; read-out: PAR P-1 Inhibitory ability at 1 nM
In short: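 After the 1 hour PARP reaction, wells were washed with PBS containing 0.1% triton X-100 and then PBS. Strep-HRP (50 μL) was bound for 1 hour, wells washed again, and 50 μL of TACS-sapphire substrate developed 15 minutes in the dark. Reactions were stopped with 50 μL of 5% phosphoric acid and absorbance read at 450 nm on a Victor3 reader.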

Chain of PARP-1 (poly[ADP-ribose] polymerase 1) enzyme (P09874 whole entry): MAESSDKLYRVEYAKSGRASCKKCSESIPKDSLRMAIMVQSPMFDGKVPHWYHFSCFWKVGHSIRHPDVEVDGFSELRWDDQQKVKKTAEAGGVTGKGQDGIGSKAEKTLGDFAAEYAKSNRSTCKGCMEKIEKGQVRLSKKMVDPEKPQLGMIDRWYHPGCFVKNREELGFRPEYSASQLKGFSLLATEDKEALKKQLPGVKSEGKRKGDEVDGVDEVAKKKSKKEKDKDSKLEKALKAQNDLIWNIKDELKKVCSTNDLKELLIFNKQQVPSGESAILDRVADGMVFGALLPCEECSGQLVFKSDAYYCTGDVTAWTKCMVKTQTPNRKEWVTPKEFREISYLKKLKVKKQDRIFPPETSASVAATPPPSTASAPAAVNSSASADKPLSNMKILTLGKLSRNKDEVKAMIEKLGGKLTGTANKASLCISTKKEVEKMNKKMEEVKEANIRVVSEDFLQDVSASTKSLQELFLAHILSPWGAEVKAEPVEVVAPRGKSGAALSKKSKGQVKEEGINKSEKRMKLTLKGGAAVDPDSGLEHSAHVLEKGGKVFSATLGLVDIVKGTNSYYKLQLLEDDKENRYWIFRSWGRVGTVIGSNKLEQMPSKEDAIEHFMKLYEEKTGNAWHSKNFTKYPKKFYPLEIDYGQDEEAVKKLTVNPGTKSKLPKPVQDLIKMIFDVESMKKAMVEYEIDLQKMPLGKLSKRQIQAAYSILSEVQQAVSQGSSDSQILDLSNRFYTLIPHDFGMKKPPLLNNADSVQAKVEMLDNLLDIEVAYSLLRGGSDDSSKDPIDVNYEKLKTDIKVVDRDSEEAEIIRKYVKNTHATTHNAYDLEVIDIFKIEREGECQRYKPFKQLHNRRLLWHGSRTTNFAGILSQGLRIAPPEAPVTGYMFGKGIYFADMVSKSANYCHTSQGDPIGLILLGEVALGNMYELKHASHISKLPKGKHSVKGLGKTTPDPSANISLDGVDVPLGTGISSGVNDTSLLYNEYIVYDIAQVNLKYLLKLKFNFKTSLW

| SMILES | inhibition at 0.001 µM |
| --- | --- |
| Cc1cc(F)cc2c(=O)[nH]c(CCC(=O)N3CCN(c4ccc(C#N)nc4)CC3)cc12 [Example 151, 5-(4-(3-(7-fluoro-5-methyl-1-oxo-1,2-dihydroisoquinolin-3-yl)propanoyl)piperazin-1-yl)picolinonitrile] | < 50% |
| Cc1ccc(F)c2c(=O)[nH]c(CCCN3C4CCC3CN(c3ccc(F)cc3)C4)cc12 [Example 198, 8-fluoro-3-(3-(3-(4-fluorophenyl)-3,8-diazabicyclo[3.2.1]octan-8-yl)propyl)-5-methylisoquinolin-1(2H)-one] | < 50% |
| O=c1[nH]c(CCCN2CC=C(c3ccc(Cl)cc3)CC2)cc2ccc(F)cc12 [Example 49, 3-(3-(4-(4-chlorophenyl)-3,6-dihydropyridin-1(2H)-yl)propyl)-7-fluoroisoquinolin-1(2H)-one] | < 50% |
| Cc1ccc(F)c2c(=O)[nH]c(CCCN3CCN(c4ccc(C#N)cc4F)CC3)cc12 [Example 26, 3-fluoro-4-(4-(3-(8-fluoro-5-methyl-1-oxo-1,2-dihydroisoquinolin-3-yl)propyl)piperazin-1-yl)benzonitrile] | 50 to 80% |
| Cc1ccc(F)c2c(=O)[nH]c(CCCN3C4CCC3CN(c3ccc(F)nc3)C4)cc12 [Example 202, 8-fluoro-3-(3-(3-(6-fluoropyridin-3-yl)-3,8-diazabicyclo[3.2.1]octan-8-yl)propyl)-5-methylisoquinolin-1(2H)-one] | < 50% |
| Cc1cc(F)cc2c(=O)[nH]c(CCC(=O)N3CC=C(c4cccc(F)c4)CC3)cc12 [Example 164, 7-fluoro-3-(3-(4-(3-fluorophenyl)-3,6-dihydropyridin-1(2H)-yl)-3-oxopropyl)-5-methylisoquinolin-1(2H)-one] | < 50% |
| N#Cc1ccc(F)c(C2=CCN(C(=O)CCc3cc4ccc(F)cc4c(=O)[nH]3)CC2)c1 [Example 111, 4-fluoro-3-(1-(3-(7-fluoro-1-oxo-1,2-dihydroisoquinolin-3-yl)propanoyl)-1,2,3,6-tetrahydropyridin-4-yl)benzonitrile] | < 50% |
| Cc1ccc(F)c2c(=O)[nH]c(CCC(=O)N3CCN(C(=O)[C@@H](N)Cc4ccccc4)CC3)cc12 [Example 195, 3-(3-(4-(L-phenylalanyl)piperazin-1-yl)-3-oxopropyl)-8-fluoro-5-methylisoquinolin-1(2H)-one hydrochloride] | < 50% |
| N#Cc1cc(F)cc(C2=CCN(C(=O)CCc3cc4ccc(F)cc4c(=O)[nH]3)CC2)c1 [Example 114, 3-fluoro-5-(1-(3-(7-fluoro-1-oxo-1,2-dihydroisoquinolin-3-yl)propanoyl)-1,2,3,6-tetrahydropyridin-4-yl)benzonitrile] | < 50% |
| N#Cc1ccc(N2CCN(C(=O)CCc3cc4ccc(F)cc4c(=O)[nH]3)CC2)cn1 [Example 97, 5-(4-(3-(7-fluoro-1-oxo-1,2-dihydroisoquinolin-3-yl)propanoyl)piperazin-1-yl)picolinonitrile] | < 50% |
| N#Cc1ccc(C2=CCN(CCCc3cc4ncccc4c(=O)[nH]3)CC2)cc1 [Example 239, 4-(1-(3-(5-oxo-5,6-dihydro-1,6-naphthyridin-7-yl)propyl)-1,2,3,6-tetrahydropyridin-4-yl)benzonitrile] | 50 to 80% |
| Cc1cc(F)cc2c(=O)[nH]c(CCC(=O)N3CCC(Oc4ccc(C#N)cc4)CC3)cc12 [Example 262, 4-((1-(3-(7-fluoro-5-methyl-1-oxo-1,2-dihydroisoquinolin-3-yl)propanoyl)piperidin-4-yl)oxy)benzonitrile] | < 50% |
| O=C(CCc1cc2ccc(F)cc2c(=O)[nH]1)N1CCN(C(=O)C2CC2)CC1 [Example 184, 3-(3-(4-(cyclopropanecarbonyl)piperazin-1-yl)-3-oxopropyl)-7-fluoroisoquinolin-1(2H)-one] | < 50% |

Same assay, conditions: PARP-1 enzyme activity

| SMILES | IC50 |
| --- | --- |
| Cc1cc(F)cc2c(=O)[nH]c(CCC(=O)N3CCN(c4ccc(C#N)nc4)CC3)cc12 [Example 151, 5-(4-(3-(7-fluoro-5-methyl-1-oxo-1,2-dihydroisoquinolin-3-yl)propanoyl)piperazin-1-yl)picolinonitrile] | 4.05 nM |
| O=c1[nH]c(CCCN2CCN(c3ccc(F)cc3)CC2)cc2ccc(F)cc12 [Example 15, 7-fluoro-3-(3-(4-(4-fluorophenyl)piperazin-1-yl)propyl)isoquinolin-1(2H)-one] | 4.01 nM |
| O=c1[nH]c(CCCN2CC=C(c3ccc(Cl)cc3)CC2)cc2ccc(F)cc12 [Example 49, 3-(3-(4-(4-chlorophenyl)-3,6-dihydropyridin-1(2H)-yl)propyl)-7-fluoroisoquinolin-1(2H)-one] | 3.58 nM |

From patent publication US12459899B2, “Isoquinolinone derivatives, method for preparing the same, and pharmaceutical composition for preventing or treating poly(ADP-ribose) polymerase-1-related diseases, comprising the same as active ingredient” (DIGMBIO. INC., priority 2019, dated 2025)
